“Also recorded” adds a separate entry of the source. d = 2'-deoxy (DNA); m = 2'-O-methyl
Columns and labels:
human Hsp90AB1 protein = experiment: Knockdown of Hsp90AB1 protein in HSMM by Western blotting; assay type: cell-based; details: Western blot, normalized to actin, vs NC1
Procedure: ASO1-ASO6 were tested for their ability to knock down human Hsp90AB1 levels in HSMM myotubes. The effectiveness of oligonucleotides ASO1 (A1), ASO2 (A2) ASO3 (A3) ASO4 (A4) ASO5 (A5) and ASO6 (A6) in knocking down the expression of HSP90AB1 protein is shown by Western blotting in FIGS. 19A and 19B. The oligonucleotide NC1 was used as a negative control. HSP90Ab1 protein levels were normalized to the levels of actin.
The ASO oligonucleotides ASO5, ASO13 and ASO18 were tested for their ability to reduce expression of human Hsp90AB1 protein in human skeletal muscle myotubes (HSMM) and C2C12 mouse myoblasts by Western blotting. ASO5 was derived from the mouse HSP90ab1 gene, while ASO13 and ASO18 were directed to the human HSP90ab1 gene. The oligonucleotide NC1 was used as a negative control. HSP90AB1protein levels were normalized to the levels of actin.

human Hsp90AB1 mRNA = experiment: Knockdown of Hsp90AB1 mRNA in HSMM myotubes; assay type: cell-based; details: normalized to cyclophilin, vs NC1ASO
From the text: The level of human Hsp90AB1 at the mRNA level was similarly observed to be reduced in HSMM myotubes treated with the exemplary mouse antisense oligonucleotide ASO6 (FIG. 20). ASO6 (and ASOs 1-5 and 7-9) is derived from the mouse HSP90AB1 gene. The oligonucleotide NC1ASO was again used as a negative control. The level of HSP90 mRNA was normalized to a control (cyclophilin) mRNA. The human and the mouse Hsp90aB1 gene share 96% homology.

DIO mice [1] = experiment: Intraperitoneal glucose tolerance test (IPGTT) in DIO mice; assay type: in vivo, mouse; details: four weeks treatment, vs NC ASO
Procedure: Glucose tolerance tests (GTT) are performed after 6 h of fasting. Initial fasting blood glucose levels are determined, followed by intraperitoneal (ip) injection of 20% dextrose solution at a dose of 2.0 g/kg body weight (2 g/kg body weight). Blood glucose levels are measured from the tail vein at 15, 30, 60, 90, 120, 150, and 180 minutes after the glucose injection using a commercially available glucose monitor, e.g., an Accu-chek® Advantage glucometer (Roche Diagnostics®, Indianapolis, Ind.). The area under the curve (AUC) during the GTT is calculated using a commercially available software program, e.g., GraphPad Prism software. GTT experiments for different groups are run in parallel. At each time point of the tail vein glucose measurements, ˜40 μL of tail vein blood is collected and plasma is prepared for subsequent insulin level assays using ELISA/RIA for time points at 0, 15, and 30 min after glucose injections.
HSP90AB1 antisense oligonucleotides (ASO) specific to HSP90AB1 were administered to DIO mice. […]
The mice were divided into four groups: (1) lean (non-diabetic control); (2) diabetic receiving control ASO (NC-ASO); (3) diabetic receiving ASO5; and (4) diabetic receiving ASO6. […] Skeletal muscles were subjected to quantitative PCR.
At the end of the treatment period glucose tolerance was measured. […]

DIO mice [2] = experiment: Fed / plasma glucose level in DIO mice; assay type: in vivo, mouse
Procedure: (§1) The mice were divided into four groups: (1) lean (non-diabetic control); (2) diabetic receiving control ASO (NC-ASO); (3) diabetic receiving ASO5; and (4) diabetic receiving ASO6. In various experiments mice were dosed intra-peritoneally with twice per week injection of ASO at […] body weight for 4 or 8 weeks. Skeletal muscles were subjected to quantitative PCR.
Additional experiments were performed to determine the effect of the reduction of Hsp90ab1 protein level on the level of glucose in plasma. […] Thus, treatment with an Hsp90ab1 selective ASO is effective for improving glucose utilization in DIO mice.

DIO mice [3] = experiment: Insulin level in DIO mice; assay type: in vivo, mouse
Procedure: as §1
Further, the effect of the reduction of Hsp90ab1 protein level on plasma insulin levels was examined.

Hsp90ab1 mRNA = Hsp90ab1 mRNA in gastrocnemius muscles of DIO mice (quantitative PCR); assay type: in vivo, mouse; details: ASO intra-peritoneally twice per week
Procedure: as §1

[4] = tested on: skeletal muscles of DIO mice; experiment: Skeletal muscle gene expression and PDH-E1α phosphorylation in DIO mice; assay type: in vivo, mouse
From the text: PDK4 is known to phosphorylate pyruvate dehydrogenase (PDH)-E1α subunit, thereby inhibiting PDH and downregulating mitochondrial glucose oxidation. […] This decrease in phosphorylation is indicative of an increase in active PDH-E1α and a resultant increase in mitochondrial glucose oxidation. Thus, ASO mediated Hsp90ab1 knock-down is effective for enhancing substrate metabolism through suppression of PDK4 expression.
These genes are PFKM (phosphofructokinase, muscle), ALDOA (aldolase A), GYS1 (glycogen synthase 1) ACCA (Acetyl-CoA carboxylase), HSL (Hormone sensitive lipase), SCD1 (Stearoyl-CoA desaturase), ACADL (Acyl-CoA Dehydrogenase), and CPT1b (Carnitine palmitoyltransferase I). Gene expression was examined in the skeletal muscles of the mice.

muscle of DIO mice = experiment: Lipidomic analysis of muscle of DIO mice; assay type: in vivo, mouse
From the text: As noted in the above examples, Hsp90ab1 was identified as a critical node in Bayesian metabolic disease network derived by the interrogation of the biology underlying diabetes in a data driven manner. This was achieved by using a proprietary platform integrating pan-omic data, mitochondrial-centric metabolic fingerprint and phenotypic assays capturing metabolic dysregulation reminiscent of obesity/diabetes sequale. Hsp90ab1 is an ATPase targeting multiple clients including vital components of insulin signaling and mitochondrial membrane proteins. However the role of Hsp90ab1 in metabolism remains unknown. […] This was accompanied by decreased muscle PDH E1a phosphorylation, reflecting an increased insulin sensitivity and carbohydrate substrate metabolism. We also observed significant alteration in the lipidomic profile in these DIO mice treated with ASO6. For example ASO6-mediated knockdown of Hsp90ab1 in DIO mice increased 18:2 enriched species of cardiolipin in muscle. […] Taken together, our data provides novel evidence that Hsp90ab1 isoform is a key regulator of skeletal muscle cell metabolism and systemic metabolism, and represents a target for treatment of diabetes.

## mU*mC*mC*mU*mC*mC*T*C*T*T*T*C*T*C*A*C*C*T*mU*mU*mC*mU*mC*mU (antisense UCCUCCTCTTTCTCACCTUUCUCU; sugars from the 5' end m6 d12 m6, all phosphorothioate, methylation of C not given here) [ASO6, modified antisense oligonucleotide derived from the mouse HSP90AB1 gene]
Human Hsp90AB1 protein
  level of HSP90ab1 protein: effective; also recorded: most effective
Human Hsp90AB1 mRNA
  level of human Hsp90AB1 mRNA: knockdown; also recorded: reduced
DIO mice [1]
  glucose tolerance (IPGTT): significant improvement; also recorded: significantly improved
DIO mice [2]; DIO mice, eight weeks treatment
  fed glucose level: significant improvement
DIO mice [2]; HFD fed C57B/6 mice, 4 weeks treatment
  fed glucose levels: suppressed
DIO mice [3]
  fed insulin levels: significant reduction
Hsp90ab1 mRNA
  Hsp90ab1 mRNA level in the gastrocnemius muscles: effective; also recorded: reduce
[4]; DIO mice (fed HFD), 4 weeks, vs NC
  PDK4 expression (mRNA) in skeletal muscle: significant decrease
[4]; DIO mice, Western blot
  phosphorylation of PDH-E1α (S232, S293, S300) in skeletal muscle: decreased
[4]; DIO mice, four weeks
  skeletal muscle mRNA level of Adipose triglyceride lipase (ATGL): sharp increase
[4]; DIO mice, four weeks, skeletal muscles
  expression of key genes that regulate glycolysis and lipid oxidation (PFKM, ALDOA, GYS1, ACCA, HSL, SCD1, ACADL, CPT1b): influences the expression
Muscle of DIO mice
  18:0 and 18:0-OH acylcarnitines in muscle: selectively decreased
  18:2 enriched species of cardiolipin in muscle: increased
  steric, oleic, and linoleic free fatty acids (FFA) in muscle: decreased
